Test results from patent publication US20230226198A1, “Artemisinin Derivatives” (DA ZEN THERANOSTICS, INC., priority 2019, published 2023).

Tests used:
Assay type in all cases: cell-based
H358 cells = assay: MTT cell viability / IC50 assay, H358; conditions: Homo sapiens, NCI-H358, 48 h
Method: (§1) Cell culture: In the following examples, unless otherwise specified, all cell lines are purchased from American Type Culture Collection and cultured in American Type Culture Collection (ATCC)-recommended media, with fetal bovine serum (FBS) to a final concentration of 10% and 1× penicillin/streptomycin at 37° C. with 5% CO2 in a cell culture incubator, unless otherwise specified. Unless otherwise specified, culture is 2D. Where culture is 3D, low attachment plates are used, with the same media. C4-2B (ATCC® CRL-3315™, human prostate cancer cells of epithelial morphology) parental cell line and drug-resistant cells derived therefrom) are cultured in RPMI-1640 with 10% FBS. MDVR cells (an Enzalutamide-resistant variety of C4-2B prostate cancer cells formed as described below) are cultured as indicated for the parental C4-2B cells. Caki-1 cells (human clear cell renal cell carcinoma cells) are cultured in ATCC-formulated McCoy's 5a Medium Modified (ATCC Catalog No. 30-2007) with 10% FBS. […]
(§2) Each of the cell lines is treated either with a THAD (e.g. DZ-DHA-ether, MI-148-bis-DHA), or for comparison, with the DHA mono-ester “DZ-DHA”; alternatively/additionally, DZ1 and/or unconjugated DHA may serve as comparants. […] The absorbance density of the supernatant is read on a 96-well microplate reader at wavelength 595 nm. […]

[1] = test system: Abi-R cells (Abiraterone acetate resistant C4-2B cells); assay: MTT cell viability / IC50 assay, Abi-R; conditions: Homo sapiens, 48 h
Method: as §1, §2

DU145 cells = assay: MTT cell viability / IC50 assay, DU145; conditions: Homo sapiens, DU-145; DU145, 48 h
Method: as §1, §2

Structure (SMILES)	IC50 (H358 cells)	IC50 [1]	IC50 (DU145 cells)
C[C@H]1[C@@H](O)O[C@@H]2O[C@@]3(C)CC[C@H]4[C@H](C)CC[C@@H]1[C@@]24OO3 [DHA, dihydroartemisinin]	7.32 µM	669 µM	295 µM
C[C@@H]1CC[C@H]2[C@@H](C)C(OC(=O)CCCCCN3/C(=C/C=C4\CCCC(/C=C/C5=[N+](CCCCS(=O)(=O)[O-])c6ccccc6C5(C)C)=C4Cl)C(C)(C)c4ccccc43)O[C@@H]3OC4(C)CC[C@@H]1[C@]32OO4 (stereo in doubt) [DZ3a]	2.6 µM	17.1 µM	8.1 µM
